In ChEMBL document CHEMBL3286148, “Aminoazabenzimidazoles, a novel class of orally active antimalarial agents” (J Med Chem, 2014):
Values after ≈ are worked out from the molar mass of the structure shown.

Tests used:
[1] = test system: Plasmodium falciparum; test: Antiplasmodial activity against Plasmodium falciparum Dd2; assay type: functional, organism-based
[2] = test system: Plasmodium falciparum; test: Antiplasmodial activity against Plasmodium falciparum Dd2 harboring HSP90 mutant; assay type: functional, organism-based
[3] = test system: Plasmodium falciparum; test: Antiplasmodial activity against Plasmodium falciparum Dd2 harboring CYTb-Qi mutant; assay type: functional, organism-based
[4] = test system: Plasmodium falciparum; test: Antiplasmodial activity against Plasmodium falciparum Dd2 harboring CRT mutant; assay type: functional, organism-based
[5] = test system: Plasmodium falciparum; test: Antiplasmodial activity against Plasmodium falciparum Dd2 harboring DHODH mutant; assay type: functional, organism-based
[6] = test system: Plasmodium falciparum; test: microbe, parasite or virus in culture; conditions: NF54, 72 h
[7] = test system: Plasmodium falciparum; test: microbe, parasite or virus in culture; conditions: W2, 72 h
Description: Antiplasmodial activity against Plasmodium falciparum W2 after 72 hrs by SYBR I method

[8] = Selectivity index, ratio of IC50 for human A549 cells to IC50 for Plasmodium falciparum; assay type: toxicity, cell-based; conditions: read-out: Ratio IC50
[9] = test system: Plasmodium falciparum; test: microbe, parasite or virus in culture; conditions: 7G8, 72 h
Description: Antiplasmodial activity against Plasmodium falciparum 7G8 after 72 hrs by SYBR I method

[10] = test system: Plasmodium falciparum; test: microbe, parasite or virus in culture; conditions: Dd2, 72 h
Description: Antiplasmodial activity against Plasmodium falciparum Dd2 after 72 hrs by SYBR I method

[11] = test system: Plasmodium falciparum; test: microbe, parasite or virus in culture; conditions: K1, 72 h
[12] = test system: Plasmodium falciparum; test: microbe, parasite or virus in culture; conditions: SB1, 72 h
Description: Antiplasmodial activity against Plasmodium falciparum SB1 after 72 hrs by SYBR I method

[13] = target: Voltage-gated inwardly rectifying potassium channel KCNH2 (Homo sapiens, UniProt Q12809); test: Inhibition of human ERG
Chain of Voltage-gated inwardly rectifying potassium channel KCNH2 (Q12809 whole entry): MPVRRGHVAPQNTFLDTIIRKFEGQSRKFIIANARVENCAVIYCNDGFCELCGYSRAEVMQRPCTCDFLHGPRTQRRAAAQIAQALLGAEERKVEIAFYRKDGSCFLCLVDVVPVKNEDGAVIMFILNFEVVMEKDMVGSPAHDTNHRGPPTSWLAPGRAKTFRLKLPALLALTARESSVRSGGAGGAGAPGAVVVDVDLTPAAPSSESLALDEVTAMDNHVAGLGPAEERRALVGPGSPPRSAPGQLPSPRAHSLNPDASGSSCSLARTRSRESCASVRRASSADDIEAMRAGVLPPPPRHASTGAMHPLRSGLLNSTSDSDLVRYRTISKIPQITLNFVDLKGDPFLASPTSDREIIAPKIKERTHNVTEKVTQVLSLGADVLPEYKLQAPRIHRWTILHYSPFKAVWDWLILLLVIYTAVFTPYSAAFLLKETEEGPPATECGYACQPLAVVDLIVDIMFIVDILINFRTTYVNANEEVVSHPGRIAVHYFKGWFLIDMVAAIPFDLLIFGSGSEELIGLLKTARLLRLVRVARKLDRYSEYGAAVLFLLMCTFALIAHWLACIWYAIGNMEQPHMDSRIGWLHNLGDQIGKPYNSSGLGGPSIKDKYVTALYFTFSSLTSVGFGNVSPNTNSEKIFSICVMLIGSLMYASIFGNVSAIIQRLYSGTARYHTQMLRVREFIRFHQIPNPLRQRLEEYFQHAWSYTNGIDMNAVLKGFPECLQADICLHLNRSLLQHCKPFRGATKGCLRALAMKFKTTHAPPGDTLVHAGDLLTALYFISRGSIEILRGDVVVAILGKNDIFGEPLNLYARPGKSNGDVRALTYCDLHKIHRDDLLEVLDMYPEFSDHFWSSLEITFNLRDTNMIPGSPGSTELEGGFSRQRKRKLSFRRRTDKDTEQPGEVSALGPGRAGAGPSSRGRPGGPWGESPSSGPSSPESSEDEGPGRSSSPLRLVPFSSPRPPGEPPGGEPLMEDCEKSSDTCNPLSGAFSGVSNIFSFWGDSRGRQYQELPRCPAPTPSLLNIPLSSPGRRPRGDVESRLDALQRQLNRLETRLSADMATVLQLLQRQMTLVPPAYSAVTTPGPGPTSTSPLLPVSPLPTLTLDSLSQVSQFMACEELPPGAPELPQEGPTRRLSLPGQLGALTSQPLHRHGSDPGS

[14] = Clearance in human liver microsomes; assay type: ADME; conditions: read-out: CLH
[15] = Clearance in mouse liver microsomes; assay type: ADME; conditions: read-out: CLH
[16] = Clearance in rat hepatocytes assessed per 1E6 cells; assay type: ADME, cell-based, Hepatocyte; conditions: read-out: CLH
[17] = target: Cytochrome P450 2C19 (Homo sapiens, UniProt P33261); test: Inhibition of CYP2C19 (unknown origin); assay type: ADME
Chain of Cytochrome P450 2C19 (P33261 whole entry): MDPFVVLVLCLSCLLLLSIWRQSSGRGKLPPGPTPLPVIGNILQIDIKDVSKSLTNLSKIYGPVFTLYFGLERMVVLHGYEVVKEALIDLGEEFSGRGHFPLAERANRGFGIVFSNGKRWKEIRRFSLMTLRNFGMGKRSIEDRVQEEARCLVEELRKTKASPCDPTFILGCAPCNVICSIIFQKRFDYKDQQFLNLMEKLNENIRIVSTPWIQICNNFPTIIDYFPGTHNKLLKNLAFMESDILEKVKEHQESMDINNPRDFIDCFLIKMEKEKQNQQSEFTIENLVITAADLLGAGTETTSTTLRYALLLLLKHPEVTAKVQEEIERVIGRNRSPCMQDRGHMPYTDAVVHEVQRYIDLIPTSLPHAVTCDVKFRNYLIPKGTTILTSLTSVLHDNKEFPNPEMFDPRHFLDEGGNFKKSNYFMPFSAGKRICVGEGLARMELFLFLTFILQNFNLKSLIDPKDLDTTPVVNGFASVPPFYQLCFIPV

[18] = target: Cytochrome P450 2C9 (Homo sapiens, UniProt P11712); test: Inhibition of CYP2C9 (unknown origin); assay type: ADME
Chain of Cytochrome P450 2C9 (P11712 whole entry): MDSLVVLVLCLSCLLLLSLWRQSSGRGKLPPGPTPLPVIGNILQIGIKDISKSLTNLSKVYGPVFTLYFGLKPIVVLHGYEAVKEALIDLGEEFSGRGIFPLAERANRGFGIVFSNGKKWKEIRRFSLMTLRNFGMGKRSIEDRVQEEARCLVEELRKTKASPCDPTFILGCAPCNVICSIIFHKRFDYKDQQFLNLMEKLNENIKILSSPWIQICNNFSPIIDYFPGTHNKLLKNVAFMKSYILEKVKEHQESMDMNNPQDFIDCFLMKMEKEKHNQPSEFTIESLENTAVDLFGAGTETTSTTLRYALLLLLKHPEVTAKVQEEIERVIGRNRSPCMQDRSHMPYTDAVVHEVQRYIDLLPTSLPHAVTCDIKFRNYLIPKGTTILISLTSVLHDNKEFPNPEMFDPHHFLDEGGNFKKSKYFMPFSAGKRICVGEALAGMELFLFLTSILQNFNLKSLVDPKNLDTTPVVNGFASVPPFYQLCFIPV

[19] = target: Cytochrome P450 2D6 (Homo sapiens, UniProt P10635); test: Inhibition of CYP2D6 (unknown origin); assay type: ADME
Chain of Cytochrome P450 2D6 (P10635 whole entry): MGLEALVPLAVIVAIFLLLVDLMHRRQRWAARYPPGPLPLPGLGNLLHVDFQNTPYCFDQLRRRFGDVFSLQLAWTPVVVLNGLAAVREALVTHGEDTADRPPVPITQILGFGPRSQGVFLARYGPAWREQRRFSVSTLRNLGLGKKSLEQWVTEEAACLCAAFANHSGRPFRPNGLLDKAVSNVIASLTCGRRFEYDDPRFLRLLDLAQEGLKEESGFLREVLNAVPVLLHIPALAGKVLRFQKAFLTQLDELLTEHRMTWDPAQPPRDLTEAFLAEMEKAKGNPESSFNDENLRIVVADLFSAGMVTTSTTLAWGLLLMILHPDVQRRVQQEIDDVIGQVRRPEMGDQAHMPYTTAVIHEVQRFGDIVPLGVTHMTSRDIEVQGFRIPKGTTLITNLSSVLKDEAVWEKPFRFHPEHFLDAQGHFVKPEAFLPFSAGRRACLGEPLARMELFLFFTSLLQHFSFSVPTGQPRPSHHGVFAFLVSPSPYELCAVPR

[20] = target: Cytochrome P450 3A4 (Homo sapiens, UniProt P08684); test: Inhibition of CYP3A4 (unknown origin); assay type: ADME
Chain of Cytochrome P450 3A4 (P08684 whole entry): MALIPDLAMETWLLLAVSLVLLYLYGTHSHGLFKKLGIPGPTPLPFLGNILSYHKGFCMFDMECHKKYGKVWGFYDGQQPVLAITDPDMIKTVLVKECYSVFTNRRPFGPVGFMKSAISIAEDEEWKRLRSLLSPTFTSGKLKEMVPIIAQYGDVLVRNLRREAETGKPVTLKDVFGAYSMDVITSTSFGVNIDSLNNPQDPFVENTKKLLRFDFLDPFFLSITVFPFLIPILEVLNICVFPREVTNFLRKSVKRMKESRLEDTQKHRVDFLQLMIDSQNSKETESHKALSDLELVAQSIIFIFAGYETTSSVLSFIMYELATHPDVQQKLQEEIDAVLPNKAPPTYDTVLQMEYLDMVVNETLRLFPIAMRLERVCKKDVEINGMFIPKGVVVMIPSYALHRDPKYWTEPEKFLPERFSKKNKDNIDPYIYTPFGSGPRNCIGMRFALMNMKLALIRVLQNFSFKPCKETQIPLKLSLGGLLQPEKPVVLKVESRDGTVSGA

[21] = Fraction unbound in human plasma; assay type: ADME, cell-free
[22] = target: T1, Cytochrome P450 1A2 (Homo sapiens, UniProt P05177); test: Inhibition of CYP1A2 (unknown origin); assay type: ADME
T1 sequence (P05177 whole entry): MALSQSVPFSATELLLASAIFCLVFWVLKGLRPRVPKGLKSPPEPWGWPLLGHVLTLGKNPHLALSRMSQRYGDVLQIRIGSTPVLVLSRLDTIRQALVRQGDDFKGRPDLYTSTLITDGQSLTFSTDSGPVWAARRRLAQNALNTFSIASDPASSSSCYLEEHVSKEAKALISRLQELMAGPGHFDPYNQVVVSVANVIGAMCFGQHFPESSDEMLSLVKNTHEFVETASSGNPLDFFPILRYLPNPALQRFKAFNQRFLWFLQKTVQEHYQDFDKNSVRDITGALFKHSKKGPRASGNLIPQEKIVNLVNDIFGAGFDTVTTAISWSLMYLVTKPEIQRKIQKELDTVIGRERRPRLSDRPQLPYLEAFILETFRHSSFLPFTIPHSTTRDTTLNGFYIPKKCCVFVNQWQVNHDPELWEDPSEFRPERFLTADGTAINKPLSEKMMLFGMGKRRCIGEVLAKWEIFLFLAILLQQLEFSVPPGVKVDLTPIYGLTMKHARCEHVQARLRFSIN

[23] = Lipophilicity, log D of the compound; assay type: physicochemical; conditions: octanol/water
[24] = Aqueous solubility of the compound; assay type: physicochemical; conditions: buffer

Compound	IC50 [6] [nM]	selectivity ratio [8]	IC50 [11] [nM]	IC50 [13] [nM]	microsomal CLint [14] [µL/min/mg]	hepatocyte CLint [16] [µL/min/1e6 cells]	also measured
CN1CCN(C(=O)c2ccc3c(c2)N(Cc2c(F)cccc2Cl)C(=O)c2ccccc2S3)CC1							IC50 [1]: 7.3 nM; IC50 [2]: 8.42 nM; IC50 [3]: 3.16 nM; IC50 [4]: 1040 nM; IC50 [5]: 16.9 nM
Cc1nc2c(C#N)cccc2n1-c1ccc(C(=O)NC2CC2)s1							IC50 [1]: 5.79 nM; IC50 [2]: 16.2 nM; IC50 [3]: 9.94 nM; IC50 [4]: 5.07 nM; IC50 [5]: 76.8 nM
Nc1nc2ccccc2n1-c1ccccc1O	84	1190	54				IC50 [7]: 260 nM; IC50 [9]: 66.1 nM; IC50 [10]: 329 nM; IC50 [12]: 164 nM
Nc1nccn1CC(O)c1ccc(Cl)cc1Cl (racemic)	380	> 263	280				
Nc1nccn1CC(O)c1ccc(Cl)cc1F (racemic)	> 2000	> 50	> 2000	60000			
Cc1cc(Cl)ccc1C(O)Cn1ccnc1N (racemic)	> 2000	> 50	> 2000				
Nc1nccn1CC(O)c1cccc(Cl)c1Cl (racemic)	350		230				
Cc1cn(CC(O)c2ccc(Cl)cc2Cl)c(N)n1 (racemic)	380		250				
Cc1nc(N)n(CC(O)c2ccc(Cl)cc2Cl)c1C (racemic)	300	220	200	> 33300			
Nc1nc(C2CC2)cn1CC(O)c1ccc(Cl)cc1Cl (racemic)	120	241	70	4500			
Nc1nc(-c2ccc(F)cc2)cn1CC(O)c1ccc(C(F)(F)F)cc1Cl (racemic)	140	72	60	25000			
Nc1nc2ccccc2n1CC(O)c1ccc(Cl)cc1Cl (racemic)	18		7		25	155	IC50 [7]: 11.6 nM; microsomal CLint [15]: 213 µL/min/mg; IC50 [9]: 4.09 nM; IC50 [10]: 30 nM; IC50 [12]: 42.5 nM
N#Cc1ccc2nc(N)n(CC(O)c3cccc(Cl)c3Cl)c2c1 (racemic)	29		300		96	53	
CS(=O)(=O)c1ccc2nc(N)n(CC(O)c3cccc(Cl)c3Cl)c2c1 (racemic)	> 2000	> 50	> 2000	> 33300	68	44	
Nc1nc2ccc(Cl)cc2n1CC(O)c1cccc(Cl)c1Cl (racemic)	320	2.3	40	> 33300	49	22	
Nc1nc2ccc(C(F)(F)F)cc2n1CC(O)c1ccc(C(F)(F)F)cc1Cl (racemic)	53	94	10	> 10500	9	31	IC50 [17]: 2700 nM; IC50 [7]: 24.1 nM; IC50 [18]: 27900 nM; IC50 [19]: 26300 nM; microsomal CLint [15]: 62 µL/min/mg; IC50 [9]: 3.25 nM; IC50 [20]: > 30000 nM; IC50 [10]: 48.7 nM; fraction unbound [21]: < 0.01; IC50 [22]: 29400 nM; logD [23]: > 4.6; IC50 [12]: 121 nM; solubility [24]: 3 µM (≈ 1.27 µg/mL)

Compound	IC50 [6] [nM]	selectivity ratio [8]	IC50 [11] [nM]	IC50 [13] [nM]	microsomal CLint [14] [µL/min/mg]	hepatocyte CLint [16] [µL/min/1e6 cells]	also measured
Nc1nc2cnccc2n1CC(O)c1ccc(Cl)cc1Cl (racemic)	> 2000	> 25	> 500		5	14	microsomal CLint [15]: 41 µL/min/mg
Nc1nc2cccnc2n1CC(O)c1cccc(Cl)c1Cl (racemic)	340	26	180	> 33300	69	110	IC50 [17]: 10200 nM; IC50 [18]: > 30000 nM; IC50 [19]: > 30000 nM; IC50 [20]: > 30000 nM; fraction unbound [21]: 0.118; IC50 [22]: 5200 nM; logD [23]: 3; solubility [24]: 26 µM (≈ 8.4 µg/mL)
CN1CCN(c2ccc3nc(N)n(CC(O)c4ccc(C(F)(F)F)cc4Cl)c3n2)CC1 (racemic)	89	348	85	12200	21	106	IC50 [17]: 5000 nM; IC50 [7]: 156 nM; IC50 [18]: > 30000 nM; IC50 [19]: 27900 nM; microsomal CLint [15]: 102 µL/min/mg; IC50 [9]: 37.9 nM; IC50 [20]: 14100 nM; IC50 [10]: 370 nM; fraction unbound [21]: 0.234; IC50 [22]: > 30000 nM; logD [23]: 2.8; IC50 [12]: 220 nM; solubility [24]: 118 µM (≈ 53.7 µg/mL)
Nc1nc2ccc(NCC(F)(F)F)nc2n1CC(O)c1ccc(Cl)cc1Cl (racemic)	40	375	14	3500	17	198	microsomal CLint [15]: 87 µL/min/mg
Nc1nc2ccc(C3CC3)nc2n1CC(O)c1ccc(Cl)cc1Cl (racemic)	96	> 260	22		47	94	microsomal CLint [15]: > 130 µL/min/mg
Nc1nc2ccc(C(=O)NC3CC3)nc2n1CC(O)c1ccc(Cl)cc1Cl (racemic)	> 2000	> 10	> 500				
Nc1nc2ccc(OC3CNC3)nc2n1CC(O)c1ccc(C(F)(F)F)cc1Cl (racemic)	> 2000	> 50	> 500	> 33300	< 4	14	
Nc1nnc(C2CC2)n1CC(O)c1ccc(C(F)(F)F)cc1Cl (racemic)	> 2000	> 50	> 2000				
Nc1nnnn1CC(O)c1c(Cl)cccc1Cl (racemic)	> 2000	> 50	> 2000				
Nc1ncccc1CC(O)c1cccc(Cl)c1Cl (racemic)	180	294	50				IC50 [7]: 110 nM; IC50 [9]: 29.2 nM; IC50 [10]: 410 nM; IC50 [12]: 472 nM
NC1=Nc2ccccc2CN1CC(O)c1ccc(Cl)cc1Cl (racemic)	177	141	25				
C[C@@H]1CC[C@H]2[C@@H](C)C(=O)O[C@@H]3O[C@@]4(C)CC[C@@H]1[C@]32OO4 [ARTEMISININ]	7.05		6.47				IC50 [7]: 6.52 nM; IC50 [1]: 1.51 nM; IC50 [2]: 1.29 nM; IC50 [3]: 1.26 nM; IC50 [4]: 1.84 nM; IC50 [9]: 1.3 nM; IC50 [10]: 10.3 nM; IC50 [5]: 1.81 nM; IC50 [12]: 16.6 nM
O=C1C(O)=C([C@H]2CC[C@H](c3ccc(Cl)cc3)CC2)C(=O)c2ccccc21 [ATOVAQUONE]	1.36		2.26				IC50 [7]: 1.16 nM; IC50 [9]: 2.32 nM; IC50 [12]: > 2000 nM
COC1=C2C[C@@H](C)C[C@H](OC)[C@H](O)[C@@H](C)/C=C(\C)[C@H](OC(N)=O)[C@@H](OC)/C=C\C=C(/C)C(=O)NC(=CC1=O)C2=O [GELDANAMYCIN]							IC50 [1]: 176 nM; IC50 [3]: 169 nM; IC50 [4]: 204 nM; IC50 [5]: 257 nM
CCc1nc(N)nc(N)c1-c1ccc(Cl)cc1 [PYRIMETHAMINE]	28.3		8560				IC50 [7]: 15400 nM; IC50 [9]: 10000 nM; IC50 [10]: 13800 nM; IC50 [12]: 10.8 nM
